# Read-outs that look alike come from different tables or passages of the source.
# Legend:
# Assay type in all cases: cell-based, human
# A549 lung cancer cell = test: MTT anti-proliferative assay, A549; conditions: for IC50: MTT, 48 h
# Protocol: (§1) The anti-proliferation activities of the synthesized analogs were assessed by an in vitro MTT assay conducted on thirteen human cell lines. Their cytotoxic activities were evaluated by measuring the inhibition of net cell growth. […]
# (§2) 1.6. Cell lines and cell culture
# (§3) MTT was purchased from Sigma-Aldrich Co. (St. Louis, MO, USA). The PI and Annexin V-FITC apoptosis detection kit were purchased from Invitrogen (Eugene, OR, USA). All human cell lines were used in this study. […]
# (§4) cell, MCF-7 breast cancer cell, MCF-10A normal breast cell, Raji B lymphoblastoid cell and diffuse large B-cell lymphoma SU-DHL-10 cell were initially purchased from American Type Culture Collection (ATCC, Manassas, Virginia). media, DMEM, and FBS were provided from Gibco Company.
# (§5) 1.7. Cell growth inhibition assay (MTT assay)
# (§6) The experiment was carried out according to the method of reference. Briefly, cells were plated in 96-well plates at a den- […]
# (§7) the anti-proliferative activities were determined by MTT assay. […]
# (§8) (Becton-Dickinson, Franklin Lakes, NJ). […]
# AGS gastric cancer cell = test: MTT anti-proliferative assay, AGS; conditions: for IC50: MTT, 48 h
# Protocol: as §1, §2, §3, §4, §5, §6, §7, §8
# [1] = test system: BEL-7402 liver cancer cell; test: MTT anti-proliferative assay, BEL-7402; conditions: for IC50: MTT, 48 h
# Protocol: as §1, §2, §3, §4, §5, §6, §7, §8
# [2] = test system: HCT116 colectal cancer cell; test: MTT anti-proliferative assay, HCT116; conditions: for IC50: MTT, 48 h, read-out: IC50 HCT-116
# Protocol: as §1, §2, §3, §4, §5, §6, §7, §8
# [3] = test system: HeLa cervical cancer cell; test: MTT anti-proliferative assay, HeLa; conditions: for IC50: MTT, 48 h
# Protocol: as §1, §2, §3, §4, §5, §6, §7, §8
# HepG2 hepatoma cell = test: MTT anti-proliferative assay, HepG2; conditions: for IC50: MTT, 48 h, read-out: IC50 HepG-2
# Protocol: as §1, §2, §3, §4, §5, §6, §7, §8
# L-02 normal liver cell = test: MTT assay, L-02 normal cells; conditions: 48 h
# Protocol: as §1, §2, §3, §4, §5, §6, §7, §8
# [4] = test system: MGC-803 late stage differentiation gastric cancer cell; test: MTT anti-proliferative assay, MGC-803; conditions: for IC50: MTT, 48 h
# Protocol: as §1, §2, §3, §4, §5, §6, §7, §8
# MCF-7 breast cancer cell = test: MTT anti-proliferative assay, MCF-7; conditions: for IC50: MTT, 48 h
# Protocol: as §1, §2, §3, §4, §5, §6, §7, §8
# [5] = test system: MCF-10A normal breast cell; test: MTT assay, MCF-10A normal cells; conditions: 48 h
# Protocol: as §1, §2, §3, §4, §5, §6, §7, §8
# [6] = test system: Raji B lymphoblastoid cell; test: MTT anti-proliferative assay, Raji
# Protocol: as §1, §2, §3, §4, §5, §6, §7, §8
# [7] = test system: SGC-7901 early differentiation gastric cancer cell; test: MTT anti-proliferative assay, SGC-7901; conditions: for IC50: MTT, 48 h
# Protocol: as §1, §2, §3, §4, §5, §6, §7, §8
# [8] = test system: diffuse large B-cell lymphoma SU-DHL-10 cell; test: MTT anti-proliferative assay, SU-DHL-10
# Protocol: as §1, §2, §3, §4, §5, §6, §7, §8
# [9] = MTT, 48 h, read-out: IC50 SU-DHL-10
IC50 (A549 lung cancer cell),IC50 (AGS gastric cancer cell),IC50 [1],IC50 [2],IC50 [3],IC50 (HepG2 hepatoma cell),IC50 [4],IC50 (MCF-7 breast cancer cell),"IC50 ([6]; MTT, 48 h, read-out: IC50 Raji)",IC50 [7],"IC50 [8, 9]",SMILES,IC50 (L-02 normal liver cell),IC50 [5],"SI (selectivity index), IC50 (L-02)/IC50 (SGC-7901) [7]","SI (selectivity index), IC50 (L-02)/IC50 (Raji) [6]","SI (selectivity index), IC50 (L-02)/IC50 (AGS) (AGS gastric cancer cell)","SI (selectivity index), IC50 (L-02)/IC50 (HCT-116) [2]","SI (selectivity index), IC50 (L-02)/IC50 (MGC-803) [4]",further results
> 100 µM,> 100 µM,> 100 µM,> 100 µM,> 100 µM,> 100 µM,> 100 µM,> 100 µM,> 100 µM,72.1 ± 4.5 µM,> 100 µM,COc1ccc(/C=C(\C#N)c2cccc(OC(F)(F)F)c2)cc1 [Compound 1b2j],> 100 µM,> 100 µM,> 1.3,–,–,–,–,–
> 100 µM,> 100 µM,> 100 µM,> 100 µM,> 100 µM,> 100 µM,> 100 µM,> 100 µM,19.3 ± 0.5 µM,> 100 µM,62.3 ± 9.6 µM,CCN(CC)c1ccc(/C=C(\C#N)c2ccc(OC)cc2)cc1 [Compound 1e2c],> 100 µM,> 100 µM,–,> 5.1,–,–,–,"SI (selectivity index), IC50 (L-02)/IC50 (SU-DHL-10) [8]: > 1.6"
> 100 µM,89.8 ± 1 µM,> 100 µM,30.8 ± 2.9 µM,> 100 µM,> 100 µM,41.5 ± 2.1 µM,> 100 µM,> 100 µM,57.2 ± 14.3 µM,> 100 µM,N#C/C(=C\c1cccs1)c1ccc(OC(F)(F)F)cc1 [Compound 1a3b],> 100 µM,> 100 µM,> 1.7,–,> 2.3,> 1.8,> 1.7,"SI (selectivity index), IC50 (L-02)/IC50 (A549) (A549 lung cancer cell): > 1.1; SI (selectivity index), IC50 (L-02)/IC50 (HepG-2) (HepG2 hepatoma cell): > 1.6"
65.8 ± 8.9 µM,18.6 ± 3 µM,> 100 µM,20.2 ± 1.7 µM,72.3 ± 2.4 µM,20.7 ± 1.4 µM,35.2 ± 2.8 µM,55.2 ± 2.8 µM,55.1 ± 3.2 µM,56.4 ± 9.7 µM,> 100 µM,N#C/C(=C\c1ccc(Cl)cc1)c1ccc(OC(F)(F)F)cc1 [Compound 1a2c],> 100 µM,> 100 µM,> 1.7,> 1.8,> 5.3,> 4.9,> 2.8,"SI (selectivity index), IC50 (L-02)/IC50 (A549) (A549 lung cancer cell): > 1.5; SI (selectivity index), IC50 (L-02)/IC50 (HeLa) [3]: > 1.3; SI (selectivity index), IC50 (L-02)/IC50 (HepG-2) (HepG2 hepatoma cell): > 4.8; SI (selectivity index), IC50 (MCF-10A)/IC50 (MCF-7) (MCF-7 breast cancer cell): > 1.8"
> 100 µM,43.8 ± 21.8 µM,44.8 ± 10.6 µM,> 100 µM,> 100 µM,72.9 ± 9.9 µM,49.3 ± 0.3 µM,> 100 µM,> 100 µM,61.7 ± 0.4 µM,> 100 µM,CCc1ccc(/C=C(\C#N)c2cccc(OC(F)(F)F)c2)cc1 [Compound 1b2f],> 100 µM,> 100 µM,> 1.6,–,> 2.2,–,> 2.0,"SI (selectivity index), IC50 (L-02)/IC50 (BEL-7402) [1]: > 2.2; SI (selectivity index), IC50 (L-02)/IC50 (HepG-2) (HepG2 hepatoma cell): > 1.9"
> 100 µM,> 100 µM,> 100 µM,> 100 µM,> 100 µM,> 100 µM,> 100 µM,> 100 µM,> 100 µM,> 100 µM,> 100 µM,N#C/C(=C\c1ccc(Cl)cc1)c1cccc(OC(F)(F)F)c1 [Compound 1b2c],> 100 µM,> 100 µM,–,–,–,–,–,–
> 100 µM,> 100 µM,> 100 µM,> 100 µM,> 100 µM,> 100 µM,> 100 µM,> 100 µM,> 100 µM,> 100 µM,> 100 µM,CC(C)c1ccc(/C=C(\C#N)c2cccc(OC(F)(F)F)c2)cc1 [Compound 1b2g],> 100 µM,> 100 µM,–,–,–,–,–,–
> 100 µM,25.3 ± 7.5 µM,77.4 ± 3 µM,22.9 ± 6.2 µM,> 100 µM,> 100 µM,87.5 ± 0.6 µM,67.7 ± 5.4 µM,1 ± 0.2 µM,22.2 ± 8.6 µM,1 ± 0.2 µM,N#C/C(=C\c1ccc(/C=C/C(=O)c2ccc(F)cc2)cc1)c1ccc(OC(F)(F)F)cc1 [Compound 8c],> 100 µM,15.8 ± 2.5 µM,> 4.5,> 99.0,> 3.9,> 4.3,> 1.1,"SI (selectivity index), IC50 (L-02)/IC50 (BEL-7402) [1]: > 1.2; IC50 ([6]; read-out: IC50 Raji cells): ~1 µM; SI (selectivity index), IC50 (L-02)/IC50 (SU-DHL-10) [8]: > 96.1; IC50 ([8]; read-out: IC50 SU-DHL-10 cells): ~1 µM"
> 100 µM,> 100 µM,> 100 µM,> 100 µM,> 100 µM,> 100 µM,> 100 µM,> 100 µM,> 100 µM,> 100 µM,> 100 µM,N#C/C(=C\c1cccc2ccccc12)c1ccc(OC(F)(F)F)cc1 [Compound 1a3c],> 100 µM,> 100 µM,–,–,–,–,–,–

# The next lines start with the molecule.
SMILES,IC50 (A549 lung cancer cell),IC50 (AGS gastric cancer cell),IC50 [1],IC50 [2],IC50 [3],IC50 (HepG2 hepatoma cell),IC50 [4],IC50 (MCF-7 breast cancer cell),"IC50 ([6]; MTT, 48 h, read-out: IC50 Raji)",IC50 [7],"IC50 [8, 9]",IC50 (L-02 normal liver cell),IC50 [5],"SI (selectivity index), IC50 (L-02)/IC50 (SGC-7901) [7]","SI (selectivity index), IC50 (L-02)/IC50 (Raji) [6]","SI (selectivity index), IC50 (L-02)/IC50 (AGS) (AGS gastric cancer cell)","SI (selectivity index), IC50 (L-02)/IC50 (HCT-116) [2]","SI (selectivity index), IC50 (L-02)/IC50 (MGC-803) [4]",further results
N#C/C(=C\c1ccccc1)c1ccc(C(F)(F)F)cc1 [Compound 1f2c],> 100 µM,> 100 µM,> 100 µM,> 100 µM,> 100 µM,> 100 µM,> 100 µM,> 100 µM,> 100 µM,> 100 µM,> 100 µM,> 100 µM,> 100 µM,–,–,–,–,–,–
Cc1cccc(/C=C(\C#N)c2ccc(C(F)(F)F)cc2)c1 [Compound 1f2o],> 100 µM,41.2 ± 1.1 µM,> 100 µM,> 100 µM,> 100 µM,> 100 µM,> 100 µM,> 100 µM,> 100 µM,> 100 µM,> 100 µM,> 100 µM,> 100 µM,–,–,–,–,–,–
COc1ccc(/C(C#N)=C/c2cc(OC)c(OC)c(OC)c2)cc1 [Compound 1e2a],> 100 µM,18.4 ± 1.9 µM,46.8 ± 5.1 µM,7.2 ± 0.6 µM,> 100 µM,> 100 µM,8.3 ± 1.2 µM,36.9 ± 3.6 µM,11.6 ± 4.9 µM,38.2 ± 9 µM,27.2 ± 5.3 µM,47.5 ± 12.4 µM,28.1 ± 3.6 µM,> 1.2,> 4.0,> 2.8,> 6.5,> 5.7,"SI (selectivity index), IC50 (L-02)/IC50 (BEL-7402) [1]: > 1.0; SI (selectivity index), IC50 (L-02)/IC50 (SU-DHL-10) [8]: > 1.7"
CC(C)c1ccc(/C=C(\C#N)c2ccc(C(F)(F)F)cc2)cc1 [Compound 1f2q],> 100 µM,> 100 µM,> 100 µM,> 100 µM,> 100 µM,> 100 µM,> 100 µM,> 100 µM,34.9 ± 4.5 µM,> 100 µM,38.4 ± 3.6 µM,> 100 µM,> 100 µM,–,> 2.8,–,–,–,–
Cc1cccc(/C=C(\C#N)c2ccc(OC(F)(F)F)cc2)c1 [Compound 1a2q],> 100 µM,> 100 µM,> 100 µM,> 100 µM,> 100 µM,> 100 µM,> 100 µM,> 100 µM,> 100 µM,> 100 µM,> 100 µM,> 100 µM,> 100 µM,–,–,–,–,–,–
CCN(CC)c1ccc(/C=C(\C#N)c2ccc(C(F)(F)F)cc2)cc1 [Compound 1f2b],> 100 µM,> 100 µM,> 100 µM,33 ± 5.8 µM,> 100 µM,> 100 µM,> 100 µM,> 100 µM,> 100 µM,> 100 µM,> 100 µM,> 100 µM,> 100 µM,–,–,–,> 3.0,–,–
N#C/C(=C\c1ccc(F)cc1)c1ccc(OC(F)(F)F)cc1 [Compound 1a2b],> 100 µM,13.2 ± 3.3 µM,15 ± 2.7 µM,23.5 ± 4.6 µM,–,> 100 µM,37.4 ± 5.8 µM,> 100 µM,49 ± 7.4 µM,> 100 µM,38.8 ± 3.7 µM,> 100 µM,> 100 µM,–,–,–,–,–,–

# Reference: publication PMC11071649, “Synthesis and Selective Anticancer Activity Evaluation of 2-phenylacrylonitrile Derivatives as Tubulin Inhibitors” (Current Medicinal Chemistry, 2024)
